“Also recorded” adds a separate entry of the source.

This is an account of results in patent US11713470B2, “Targeted gene therapies for pain and other neuro-related disorders” (University of Pittsburgh—Of the Commonwealth System of …, priority 2017, dated 2023).

Format in all cases: in vivo, mouse
In one assay the test system is mice lacking PSAM4. Kind of assay: Mechanical and heat sensitivity at baseline and after CFA or sural-SNI in wildtype C57Bl/6 mice lacking PSAM4. The settings on record: 0.1 mpk i.p. The procedure: (§1) Mechanical and heat hypersensitivity was tested in adult wildtype male and female C57Bl/6 mice (not injected with mCCK-PSAM4 virus) before and after intraperitoneal injection of (i.p) varenicline (0.1 milligram per kilogram (mpk) (FIG. 13). We also tested these parameters before and 2-5 days after induction of the complete Freund's adjuvant (CFA)-model of inflammatory pain and 7 days after induction of the sural version of the spared nerve injury (SNI) model of neuropathic pain (FIG. 13). Sensitivity to mechanical stimuli was tested by measuring the paw withdrawal threshold to von Frey filaments (PWT) and the paw withdrawal response to a cotton swab (percentage of response) as described previously (Peirs, C. et al. Dorsal Horn Circuits for Persistent Mechanical Pain. Neuron 87, 797-812 (2015)). Heat sensitivity was tested by measuring the withdrawal latency to a radiant heat source using the Hargreaves apparatus (PWL) as described previously (Peirs, C. et al. Dorsal Horn Circuits for Persistent Mechanical Pain. Neuron 87, 797-812 (2015)).

In assay [1] the target is T1, PSAM4 in dorsal horn CCK+ neurons (Homo sapiens, UniProt P23415+P36544, L131G/Q139L/Y217F). Kind of assay: Baseline mechanical and heat sensitivity in mice injected with AAV8 mCCK-PSAM4 virus. Conditions: 0.3 mpk i.p., 2 weeks after AAV8 mCCK-PSAM4, 30-60 minutes after drug. The protocol: (§2) The mouse cholecystokinin (CCK) promoter with an added chimeric intron to drive expression of α7^L131G, Q139L, Y217F GlyR (PSAM4) was packaged into AAV2/8 and injected into the dorsal horn of 3-week-old wildtype C57Bl/6 male and female mice. Injection of AAV into the dorsal horn was performed as described previously (Peirs, C. et al. Dorsal Horn Circuits for Persistent Mechanical Pain. Neuron 87, 797-812 (2015)). See FIG. 11 for a schematic of the plasmid used to produce these rAAV particles. Briefly, a 2.5 kb fragment of the mouse CCK promoter was subcloned upstream of the PSAM4 gene with the chimeric intron (135 bp) located in between.
T1 sequence (P36544+P23415 fused P36544:L131G/P36544:Q139L/P36544:Y217F): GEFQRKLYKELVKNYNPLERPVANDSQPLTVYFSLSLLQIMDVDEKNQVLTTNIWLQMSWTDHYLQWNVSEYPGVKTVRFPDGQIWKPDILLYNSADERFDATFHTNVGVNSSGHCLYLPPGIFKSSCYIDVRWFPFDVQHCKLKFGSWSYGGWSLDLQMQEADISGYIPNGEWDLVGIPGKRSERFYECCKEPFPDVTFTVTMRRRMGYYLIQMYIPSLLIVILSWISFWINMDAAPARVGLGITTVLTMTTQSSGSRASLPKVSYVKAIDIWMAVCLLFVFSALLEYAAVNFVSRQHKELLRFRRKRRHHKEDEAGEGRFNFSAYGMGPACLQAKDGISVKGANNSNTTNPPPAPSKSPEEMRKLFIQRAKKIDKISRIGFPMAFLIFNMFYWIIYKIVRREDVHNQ
as §1
Mice were injected unilaterally in the dorsal horn with AAV8 mCCK-PSAM4 virus and tested two weeks later. […] The ipsilateral plantar hindpaw of the mice was injected with CFA and PWTs and response frequencies tested 3 days later in the absence and presence of varenicline (0.3 mpk, i.p.).

Assay [2] addresses T1, PSAM4 in dorsal horn CCK+ neurons. Kind of assay: CFA-induced mechanical allodynia in mice expressing mCCK-PSAM4 in the dorsal horn. Conditions: 0.3 mpk i.p., 3 days after CFA. The protocol:
as §2, with “between. […]” for “between.”

For assay [3] the target is unchanged. Kind of assay: Sural-SNI-induced mechanical allodynia in mice expressing mCCK-PSAM4 in the dorsal horn. The settings on record: 0.3 mpk i.p., 7 days after sural-SNI. The procedure:
as §2, with “between. […]” for “between.”

Setting [4] is: uninjured mice without PSAM4, 30-60 minutes after injection.

As for `c1cnc2cc3c(cc2n1)[C@@H]1CNC[C@H]3C1` [varenicline], the “heat hypersensitivity after CFA” value in the assay on mice lacking PSAM4 (mice without PSAM4, 2 days after CFA) is recorded as “no effect”. In addition, in the assay with mice lacking PSAM4 (mice without PSAM4, 3 days after CFA), the “mechanical hypersensitivity after CFA” value is “no effect”. Also, the “mechanical or heat hypersensitivity after sural-SNI” value in the assay on mice lacking PSAM4 (mice without PSAM4, 7 days after sural-SNI) was “no effect”. In the assay on mice lacking PSAM4 (setting [4]), the “baseline PWL (withdrawal latency, Hargreaves)” value is given as “no effect”; the “baseline PWT (paw withdrawal threshold to von Frey filaments)” value is “no effect”; the “baseline response frequency to cotton swab” value is listed as “no effect”. Besides, in assay [1], the “baseline PWL” value is “no effect; also recorded: did not alter”, the “baseline PWT” value was “no effect; also recorded: did not alter” and the “baseline percentage response (response frequency to cotton swab)” value is “no effect; also recorded: did not alter”. Further, in assay [2], the “PWT to von Frey filaments after CFA” value was “markedly reversed” and the “response frequency to cotton swab after CFA” value is given as “markedly reversed”. The “PWT to von Frey filaments after sural-SNI” value in assay [3] is “markedly reversed”.
